Tests used:
[1] = system: HDAC activity of HeLa nuclear extract; experiment: Fluor de Lys-Green HDAC assay kit, HDAC inhibition; format: biochemical
Experimental: (§1) HeLa nuclear extract, rich in HDAC activity, is included with the kit. Trichostatin A solution was used as a positive control and model inhibitor. Plates were read with excitation at 380 nm and emission at 440 nm on a TECAN Spark multimode microplate reader. Histone deacetylase activity was measured according to the manufacturer's instructions.
as §1, with “Spark®” for “Spark”, “to” for “to the”

[2] = system: CA activity in cortical and hippocampal brain homogenates; experiment: Ex vivo CA activity in brain homogenates after i.c.v. infusion (stopped-flow); settings: 50 nmol/µL, 5 µL i.c.v., 30 min after infusion; vehicle = 100%
Experimental: (§4) Specifically, mice were euthanized 30 min after the i.c.v. infusion, their brains were collected, and hippocampi and frontal cortices were immediately dissected on ice and then individually homogenized in 1 mL of ice‐cold 20 mM Hepes buffer (pH 7.5).
The overall catalytic activity of CAs (K cat) of each individual preparation was measured with a stopped flow spectrophotometric method monitoring the physiological CO2 hydration reaction catalyzed by these enzymes [30]
Animals were killed 30 min after drug infusion, and the brain structures were immediately dissected on ice and homogenized. CA activity was measured with a stopped‐flow method. The mean CA activity measured in the group of control mice treated with vehicle was taken as 100%, the activities measured for animals treated with compounds were normalized to this value. Data are expressed as means ± S.E.M. of six–nine mice per experimental group. One‐way ANOVA and Bonferroni MCT, **p < 0.01 versus vehicle.
In the infusion days, a stainless‐steel injection micro‐needle (outer diameter 0.25 mm) connected through a polyethylene catheter to a 1000 µL Hamilton precision syringe was inserted into the cannulae previously implanted and lowered into the lateral cerebral ventricle (DV 2.4 mm). Then, 5 µL of a solution containing the testing compounds or vehicle were delivered using an infusion pump at 1 µL/min flow. The needle was left in place for one additional minute after each infusion to avoid efflux. Thirty minutes after drug injections, the animals were euthanized, their brain immediately removed, the cortices and hippocampi were rapidly dissected on ice, weighted, and stored at –80°C until use.
Animals pertaining to the control group received infusions of vehicle (physiological saline containing 1% DMSO (v/v)).
Brain tissues were homogenized in 1.0 mL of ice‐cold 20 mM Hepes buffer (pH 7.5). After centrifugation at 20,000g for 30 min, an Applied Photophysics stopped‐flow instrument was used for assaying the CA‐catalyzed CO2 hydration activity from the samples as previously described [23, 34]. […] The mean CA activity determined in the brain samples from the control group of mice treated with vehicle was set as 100% and all the individual calculated values were then expressed as a percentage of controls.

[3] = target: T1, hCA I (Homo sapiens, UniProt P00915); experiment: stopped-flow CO2 hydrase assay, CA activation; format: biochemical; settings: for K A hCA I: activation constant, mean from three assays, errors ±5%–10%
T1 construct: purchased

[4] = target: T2, hCA VA (Homo sapiens, UniProt P35218); experiment: stopped-flow CO2 hydrase assay, CA activation; format: biochemical; settings: for K A hCA VA: activation constant, mean from three assays, errors ±5%–10%
T2 construct: made in house
Experimental: (§2) . The potencies were reported as K A values in Table 1 and compared with the reference compound D‐Phe. AC50 curves are reported in the Supporting Information.
(§3) . The uncatalyzed rates were determined in the same manner and subtracted from the total observed rates. Stock solutions of the inhibitor (0.1 mM) were prepared in distilled–deionized water and dilutions up to 0.01 nM were done thereafter with the assay buffer. Inhibitor and enzyme solutions were preincubated together for 15 min at r.t. before the assay, to allow for the formation of the E–I complex. The inhibition constants were obtained by nonlinear least‐squares methods using PRISM 3 and the Cheng‐Prusoff equation [41] and represent the mean from at least three different determinations. Apart from commercial hCAs I and II, all CA isoforms were recombinant proteins obtained in house, as reported earlier.
as §3, with “prior to” for “before”, “least-squares” for “least‐squares”, “Cheng-Prusoff” for “Cheng‐Prusoff”, “[2]” for “[41]”

[5] = target: T3, hCA IV (Homo sapiens, UniProt P22748); experiment: stopped-flow CO2 hydrase assay, CA activation; format: biochemical; settings: for K A hCA IV: activation constant, mean from three assays, errors ±5%–10%
T3 construct: made in house
Experimental: as §2, §3
as §3, with “prior to” for “before”, “least-squares” for “least‐squares”, “Cheng-Prusoff” for “Cheng‐Prusoff”, “[2]” for “[41]”

[6] = target: T4, hCA VII (Homo sapiens, UniProt P43166); experiment: stopped-flow CO2 hydrase assay, CA activation; format: biochemical; settings: for K A hCA VII: activation constant, mean from three assays, errors ±5%–10%
T4 construct: made in house
Experimental: as §2, §3
as §3, with “prior to” for “before”, “least-squares” for “least‐squares”, “Cheng-Prusoff” for “Cheng‐Prusoff”, “[2]” for “[41]”

[7] = target: T5, hCA II (Homo sapiens, UniProt P00918); experiment: stopped-flow CO2 hydrase assay, CA activation; format: biochemical; settings: for K A hCA II: activation constant, mean from three assays, errors ±5%–10%
T5 construct: purchased

[8] = system: Male C57Bl6 mice; experiment: Novel object recognition (NOR) paradigm, memory consolidation; format: in vivo; set-up: key to Discrimination index (DI): DI = (tN − tF)/(tN + tF); novel vs familiar exploration time; settings: for Discrimination index (DI): 5 µL i.c.v., retention test 24 h, vehicle −0.057 ± 0.069; for percentage of time spent exploring familiar vs novel object, retention test: 5 µL i.c.v. immediately after acquisition, retention test 24 h later
Experimental: This set of experiments was designed to evaluate the impact of single reference compounds (D‐Phe and 19) as well as the dual acting (12 and 14) on recognition memory. These compounds were administered directly into the brain lateral ventricles immediately after the acquisition session to investigate their impact specifically on memory consolidation. […] Such a design avoids the use of amnestic drugs that could interfere with data interpretation and represents an advantage when studying the procognitive potential of novel compounds. The dose range and administration route were also chosen based on previous reports showing that the procognitive effects of CA and HDAC modulators rely on their action on centrally and not peripherally expressed enzymes. Moreover, the injection of the tested compounds directly into the lateral ventricles (i.c.v.) consents widespread drug distribution in the brain and at the same time minimizes potential interference of peripheral phenomena such as barriers crossing, protein binding, drug metabolism, that are highly influenced by specific drug characteristics such as size, solubility, charge. Therefore, the i.c.v. route represents an advantage in studies comparing the potency of compounds by ensuring precise control of drug concentrations in the target organ and excluding confounding factors related to peripheral pharmacokinetic mechanisms.
Figure 5 Dual modulation of CAs and HDACs potently boost recognition memory in mice. (A) Schematic drawing showing the sequence of the behavioral procedures: immediately after the acquisition phase mice received infusions (5 µL) of solutions containing either vehicle, the CA activator D‐Phe, the HDAC inhibitor 19 dual acting compounds 12 and 14 at 0.5, 5, or 50 nmol/µL concentrations. The retention test was performed 24 h later. (B) Percentages of time spent exploring the familiar (F) or novel (N) objects during the retention test. The dashed line indicates a theoretical means of 50%. Statistically significant differences determined by two‐way ANOVA and Bonferroni's MCT: ****p < 0.0001 F versus N. (C) Discrimination indexes calculated with the formula DI = (tN tF)/(tN + tF). Statistically significant differences determined by one‐way ANOVA and Bonferroni's MCT: *p < 0.05; **p < 0.01 versus vehicle‐treated group. In both graphics, data are expressed either as individual data points for each animal (scattered plot) znc means ± SEM represented by bar graphs. N = 6–9 animals by experimental group.
Male C57Bl6 mice were submitted to the stereotaxic surgery to implant a guide cannula into the brain lateral ventricles as described above. One week after the surgery, their behavior was assessed in an open‐field arena (60 × 70 cm and 30 cm high) constructed in white acrylic Plexiglass and placed in a sound‐attenuated room. The detailed experimental procedure is already published. The NOR protocol consists of three sessions: habituation, acquisition, and retention test separated by 24 h intertrial intervals. During habituation, the animals freely explored the empty arena for 10 min. Twenty‐four hours later, each animal was placed in the same position and facing the same direction into the test arena in the presence of two identical objects (gray plastic shapes such as cubes, cylinders, or pyramids 8 cm high) and left free to explore it for 5 min. […] The retention test session was performed 24 h after acquisition, during which, each mouse was again placed in the test arena for 5 min in the presence of one of the familiar object and a novel object. The position of the new objects (left/right) was randomized to prevent bias from order or place preference.

[9] = target: T6, hCA IX (Homo sapiens, UniProt Q16790); experiment: stopped-flow CO2 hydrase assay, CA activation; format: biochemical; settings: activation constant; mean from three assays, errors ±5%–10%
T6 construct: made in house

[10] = system: HDAC activity in hippocampal and cortical brain homogenates; experiment: Ex vivo HDAC residual activity in brain homogenates after i.c.v. infusion (fluorometric); settings: 50 nmol/µL, 5 µL i.c.v., 30 min after infusion; vehicle = 100%
Experimental: as §4
Animals were killed 30 min after drug infusion, and the brain structures were immediately dissected on ice and homogenized. HDAC activity was measured with the fluorometric method. The HDAC mean activity of the control group mice was taken as 100%, % of the activities measured for animals treated with compounds were normalized to this value. Data are expressed as means ± S.E.M. of 6–13 mice per experimental group. One‐way ANOVA and Bonferroni MCT, ****p < 0.0001 versus vehicle‐treated group. […]
The residual enzymatic activity in brain tissues was measured using Fluor de Lys‐Green HDAC fluorometric activity assay kit purchased from Enzo Life Sciences (Farmingdale, NY). […] Measurements were performed using a TECAN Spark multimode microplate reader, set to a wavelength of 280 nm. Once the absorbance was measured, the concentration of the enzyme HDAC contained in the brain homogenates was calculated according to Lambert‐Beer's law. […] Fluorescence was measured at 380 nm and detected at 440 nm. Each test included a blank as a reference for minimal fluorescence, containing only buffer and substrate, thus lacking any protein component [49, 50]. […]

[11] = mean from three assays, errors 5%–10%
[12] = supplement InChI file, given as KI

T1 sequence (P00915 whole entry): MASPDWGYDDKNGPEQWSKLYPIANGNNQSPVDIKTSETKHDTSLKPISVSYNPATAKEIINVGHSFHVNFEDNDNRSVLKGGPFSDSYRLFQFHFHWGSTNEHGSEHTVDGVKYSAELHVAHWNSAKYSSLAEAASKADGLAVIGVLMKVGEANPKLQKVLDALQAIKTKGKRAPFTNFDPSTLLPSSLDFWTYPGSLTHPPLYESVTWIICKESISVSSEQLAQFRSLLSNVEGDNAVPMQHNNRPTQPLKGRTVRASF
T2 sequence (P35218 39-305): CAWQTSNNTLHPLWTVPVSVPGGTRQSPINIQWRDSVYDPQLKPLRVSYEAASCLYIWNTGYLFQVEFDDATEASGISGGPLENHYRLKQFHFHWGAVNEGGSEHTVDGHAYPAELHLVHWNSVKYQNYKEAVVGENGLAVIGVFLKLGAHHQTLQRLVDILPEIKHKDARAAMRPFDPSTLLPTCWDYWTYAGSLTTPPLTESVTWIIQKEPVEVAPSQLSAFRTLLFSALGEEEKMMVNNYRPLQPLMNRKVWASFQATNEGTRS
T3 sequence (P22748 19-312): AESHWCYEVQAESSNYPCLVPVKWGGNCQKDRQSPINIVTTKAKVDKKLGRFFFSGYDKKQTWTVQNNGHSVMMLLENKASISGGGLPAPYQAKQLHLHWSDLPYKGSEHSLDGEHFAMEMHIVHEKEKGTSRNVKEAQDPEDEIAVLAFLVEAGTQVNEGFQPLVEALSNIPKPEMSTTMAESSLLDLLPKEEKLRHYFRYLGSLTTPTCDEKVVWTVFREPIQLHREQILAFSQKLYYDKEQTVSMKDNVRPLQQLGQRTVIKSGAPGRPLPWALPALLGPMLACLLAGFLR
T4 sequence (P43166 whole entry): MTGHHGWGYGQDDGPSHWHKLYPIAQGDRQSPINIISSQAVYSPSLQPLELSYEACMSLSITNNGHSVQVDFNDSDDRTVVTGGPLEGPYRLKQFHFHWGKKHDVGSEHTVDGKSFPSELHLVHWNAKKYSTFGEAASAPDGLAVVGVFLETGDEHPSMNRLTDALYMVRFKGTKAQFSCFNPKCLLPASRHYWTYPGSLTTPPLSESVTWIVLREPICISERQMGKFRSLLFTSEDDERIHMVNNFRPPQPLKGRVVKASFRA

Compound	CA activity (%) in cortical homogenates versus vehicle [2]	CA activity (%) in hippocampal homogenates versus vehicle [2]	K A hCA I [3]	K A hCA VA [4]	K A hCA IV [5]	K A hCA VII [6]	K A hCA II [7]	Discrimination index (DI) ([8]; 0.5 nmol/µL)	Discrimination index (DI) ([8]; 5 nmol/µL)	percentage of time spent exploring familiar vs novel object, retention test ([8]; 5 nmol/μL)	Discrimination index (DI) ([8]; 50 nmol/µL)	percentage of time spent exploring familiar vs novel object, retention test ([8]; 50 nmol/μL)	EC50 [1, 11]	K A hCA IX [9]	further results
CC(/C=C/C(=O)NO)=C\[C@@H](C)C(=O)c1ccc(N(C)C)cc1 [Trichostatin A, reference compound]															EC50 ([1]; reference inhibitor): 0.0018 µM
Nc1ccccc1NC(=O)c1ccc(NC(=O)NCCc2c[nH]cn2)cc1.O=C(O)C(F)(F)F [Compound 12, 2‐(4‐{3‐[2‐(1H‐imidazol‐4‐yl)ethyl]ureido}benzamido)benzenaminium 2,2,2‐trifluoroacetate]	significantly increased	significantly increased	75.4 µM	> 10000 µM	23.0 µM	32.0 µM	66.8 µM	−0.077 ± 0.078	0.288 ± 0.110	spent significantly more time exploring the novel object	0.313 ± 0.173	spent significantly more time exploring the novel object	2.8 µM	68.8 µM	
Nc1cc(F)ccc1NC(=O)c1ccc(NC(=O)NCCc2c[nH]cn2)cc1.[O-][Cl+3]([O-])([O-])O.[O-][Cl+3]([O-])([O-])O [Compound 14, 4‐{3‐[2‐(1H‐Imidazol‐4‐yl)Ethyl]Ureido}‐N‐(2‐Amino‐4‐Fluorophenyl)Benzamide Diperchlorate]	significantly increased	significantly increased	53.8 µM	37.9 µM	49.1 µM	26.1 µM	49.5 µM	−0.026 ± 0.274	0.317 ± 0.132	spent significantly more time exploring the novel object	0.224 ± 0.223	spent significantly more time exploring the novel object	5.3 µM	> 10000 µM	fold more potent activator of hCA I ([3]; K A of 14 compared with 12): 1.4 fold; fold more potent activator of hCA VII ([6]; K A of 14 compared with 12): 1.2 fold; fold more potent activator of hCA II ([7]; K A of 14 compared with 12): 1.3 fold
Nc1ccccc1NC(=O)c1ccc(NCC(=O)NCCc2ccccc2)cc1 [Compound 19, N‐(2‐Aminophenyl)‐4‐{[2‐Oxo‐2‐(Phenethylamino)Ethyl]Amino}Benzamide]	no differences were observed	no differences were observed		> 10000 µM	> 10000 µM	> 10000 µM						promnesic effect	14.2 µM		KA (activation constant) [4, 12]: > 10 mM; activation constant KA [5, 12]: > 10 mM; activation constant KA [6, 12]: > 10 mM; HDAC residual activity (%) in cortical homogenates versus vehicle [10]: significant reduction; HDAC residual activity (%) in hippocampal homogenates versus vehicle [10]: significant reduction
N[C@H](Cc1ccccc1)C(=O)O [D‐Phe, reference compound]	significantly increased	significantly increased	86.0 µM		49.3 µM		0.035 µM					promnesic effect			

— article PMC12174897, “Hitting Two Birds With One Stone: Dual Modulation of Brain Carbonic Anhydrases and Histone Deacetylases Boosts Memory Consolidation” (Archiv Der Pharmazie, 2025)
